Values quoted from earlier work as cited in patent US9789071B2 (G2B Pharma Inc., priority 2012, dated 2017).

How the values were obtained:
[1] = dogs
[2] = dogs; remark: listed apart in the source
[3] = oral route
[4] = sublingual doses 5 to 40 mg, as the bitartrate salt
[5] = normal human subjects, IM epinephrine injection
[6] = IM injection
[7] = nasal mucosa, needleless high-pressure injection

Q: For `CNC[C@H](O)c1ccc(O)c(O)c1` [epinephrine], which “greatest epinephrine plasma concentrations” value ([1]; CPR, 7.5 mg/kg/nostril epinephrine after 0.25 mg/kg/nostril intranasal phentolamine, 1% taurodeoxycholic acid) is on record?
A: ~1,400 ng/mL

Q: And the absolute bioavailability ([1]; intranasal, with 1% taurodeoxycholic acid)?
A: quite low

Q: What about the “time peak systolic pressure was maintained” value [2] of the same compound?
A: about 180 seconds

Q: What about the peak systolic pressure ([2]; at 60 seconds) of the same compound?
A: 200 % of baseline

Q: What about the “peak epinephrine levels in the blood” value [2, 7] of the same compound?
A: ~20 ng/mL

Q: And the “time of peak (Tmax) epinephrine levels in the blood” value [2, 7]?
A: 0.25 min

Q: What about the bioavailability [3] of the same compound?
A: negligible

Q: What about the plasma concentrations [4] of the same compound?
A: equivalent to IM injection

Q: What about the Tmax [5] of the same compound?
A: 69 ± 19 min

Q: What about the “onset of action (Tmax)” value [6] of the same compound?
A: 3 to 8 min
